One data set relates to Caco-2 cell. Set-up: method as in Yu et al. (2017). Conditions: Caco-2 cell culture model; ref Yu et al. (2017); cited from earlier work.
Data set [1] has as its system multidrug-resistant associated protein 2 (MRP2). On the set-up: method as in Teng et al., 2007, 2012; Liu et al., 2012. As to conditions: ref Teng et al., 2007, 2012, Liu et al.; cited from earlier work.
The target in another data set is MRP2 (Rattus norvegicus, UniProt Q63120). Briefly: Emodin transport in jejunum in the presence of MRP2 inhibitor MK571 (Ussing chamber). Conditions: MK571 186 μM on mucosal side. The source says: (§1) The four intestinal segments including duodenum, jejunum, ileum, and colon from anesthetized rats were immediately removed by surgery and washed with KRB solution. Each section of the intestinal segments was then placed in cold (on ice), bubbled (O2:CO2 95:5) KRB buffer. The four intestinal segments were then cut into 2 cm pieces, respectively, and serosas were removed by blunt dissection. Peyer’s patches were excluded from the experiment by visually identified. The stripped tissues were mounted in chambers with exposed surface area of 0.49 cm^2. Temperature of the chambers was maintained at 37 ± 0.5°C. Each of the half-cells in the chambers was filled with 5 mL fresh KRB buffer (pH 6.5). […]
Chain of MRP2 (Q63120 whole entry): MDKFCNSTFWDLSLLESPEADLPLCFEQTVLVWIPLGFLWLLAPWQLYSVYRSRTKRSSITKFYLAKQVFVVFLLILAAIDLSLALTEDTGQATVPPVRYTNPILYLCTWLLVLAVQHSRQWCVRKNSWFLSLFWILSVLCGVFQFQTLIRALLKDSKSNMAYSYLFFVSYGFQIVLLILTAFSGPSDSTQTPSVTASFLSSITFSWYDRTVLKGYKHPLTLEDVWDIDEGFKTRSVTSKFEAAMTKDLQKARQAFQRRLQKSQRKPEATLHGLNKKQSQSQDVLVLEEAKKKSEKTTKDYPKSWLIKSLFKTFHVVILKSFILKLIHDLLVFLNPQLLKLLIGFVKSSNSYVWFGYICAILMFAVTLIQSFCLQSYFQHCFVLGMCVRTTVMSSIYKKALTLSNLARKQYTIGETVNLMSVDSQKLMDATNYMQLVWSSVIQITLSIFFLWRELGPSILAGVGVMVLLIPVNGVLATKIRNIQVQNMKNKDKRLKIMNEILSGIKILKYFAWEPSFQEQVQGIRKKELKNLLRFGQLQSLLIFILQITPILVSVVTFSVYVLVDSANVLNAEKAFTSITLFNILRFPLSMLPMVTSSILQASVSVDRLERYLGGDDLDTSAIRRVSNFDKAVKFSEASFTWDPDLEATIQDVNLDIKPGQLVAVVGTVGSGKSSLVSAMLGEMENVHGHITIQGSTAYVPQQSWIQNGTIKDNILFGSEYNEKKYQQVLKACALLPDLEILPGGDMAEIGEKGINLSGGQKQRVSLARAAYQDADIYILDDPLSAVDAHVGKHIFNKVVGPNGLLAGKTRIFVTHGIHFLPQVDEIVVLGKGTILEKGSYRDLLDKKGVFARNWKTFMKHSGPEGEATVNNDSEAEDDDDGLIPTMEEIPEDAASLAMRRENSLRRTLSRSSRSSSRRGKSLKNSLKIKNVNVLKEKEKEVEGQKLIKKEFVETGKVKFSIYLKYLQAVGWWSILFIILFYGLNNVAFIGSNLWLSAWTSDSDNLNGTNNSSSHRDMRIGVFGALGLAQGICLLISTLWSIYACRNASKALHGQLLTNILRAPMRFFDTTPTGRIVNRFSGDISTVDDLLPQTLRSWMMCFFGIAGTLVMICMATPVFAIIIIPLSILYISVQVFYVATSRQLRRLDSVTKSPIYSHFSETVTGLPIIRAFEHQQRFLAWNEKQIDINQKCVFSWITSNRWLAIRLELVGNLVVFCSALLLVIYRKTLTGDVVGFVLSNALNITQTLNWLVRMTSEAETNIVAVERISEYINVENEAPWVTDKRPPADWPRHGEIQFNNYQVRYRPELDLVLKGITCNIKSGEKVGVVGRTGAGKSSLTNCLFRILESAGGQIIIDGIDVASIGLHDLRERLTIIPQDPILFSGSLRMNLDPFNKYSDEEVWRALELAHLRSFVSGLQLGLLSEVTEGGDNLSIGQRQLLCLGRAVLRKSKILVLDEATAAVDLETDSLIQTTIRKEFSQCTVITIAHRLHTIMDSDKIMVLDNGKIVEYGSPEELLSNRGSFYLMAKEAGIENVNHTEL
(§2) In this study, the effects of the three efflux transporters on emodin intestinal absorption were investigated. […] Changes of the bidirectional transport characteristic were measured before and after adding emodin to the mucosal side. […]
(§3) The quantifications of the compounds were performed by the TSQ Quantum Ultra Triple Quadrupole LC-MS/MS system from Thermo Fisher Scientific. […]
(§4) The Q (accumulative quantity), Papp (apparent permeability), Er (efflux ratio), Pr (Papp ratio), and Err (Er ratio) across the excited rat intestinal segments in the Ussing chamber were calculated using the following equations ([Li et al., 2012]; [Huang et al., 2016]): […]

The next data set relates to P-glycoprotein (P-gp). On the set-up: method as in Teng et al., 2007, 2012; Liu et al., 2012. As to conditions: ref Teng et al., 2007, 2012, Liu et al.; cited from earlier work.
A short description of data set [2]: Absorption characteristics of emodin in rat intestinal segments (Ussing chamber).
Text: (§5) The four intestinal segments including duodenum, jejunum, ileum, and colon from anesthetized rats were immediately removed by surgery and washed with KRB solution. Each section of the intestinal segments was then placed in cold (on ice), bubbled (O2:CO2 95:5) KRB buffer. The four intestinal segments were then cut into 2 cm pieces, respectively, and serosas were removed by blunt dissection. Peyer’s patches were excluded from the experiment by visually identified. The stripped tissues were mounted in chambers with exposed surface area of 0.49 cm^2. Temperature of the chambers was maintained at 37 ± 0.5°C. Each of the half-cells in the chambers was filled with 5 mL fresh KRB buffer (pH 6.5). Tissue viability was continuously controlled by potential difference (PD). Tissue with electrical values less than 2 mV was refused ([Moazed and Hiebert, 2007]; [Heinen et al., 2013]).
In this study, the effects of the three efflux transporters on emodin intestinal absorption were investigated. Meanwhile, the influence of emodin on intestinal P-gp, MRP2, and MRP3 functions were also discussed. Solutions with three concentrations (low, middle, and high) of emodin were filled in the mucosal or serosal compartment to measure the bidirectional transport characteristic. […] In the emodin impact experiments, digoxin, pravastatin, and teniposide were employed as P-gp, MRP2, and MRP3 substrates. Changes of the bidirectional transport characteristic were measured before and after adding emodin to the mucosal side. […]
as §3, §4

Data set [3] has as its target T1, MRP3 (Rattus norvegicus, UniProt O88563).
T1 construct: intestinal segments including duodenum, jejunum, ileum, and colon from anesthetized rats were immediately removed by surgery; from tissue; host or cells: stripped rat intestine (jejunum and ileum in validation; jejunum for the emodin studies)
Put plainly: Emodin transport in jejunum in the presence of MRP3 inhibitor benzbromarone (Ussing chamber). The format is in vitro ADME.
Text: as §1, §2, §3, §4

Data set [4] has as its system P-gp. Briefly: Influence of emodin on P-gp function: digoxin bidirectional transport in the presence of emodin (Ussing chamber). As to conditions: rat jejunum, emodin 185, 370, 740 μM, digoxin as substrate. The format is in vitro ADME.
Text: as §5
(§6) In this study, the effects of the three efflux transporters on emodin intestinal absorption were investigated. Meanwhile, the influence of emodin on intestinal P-gp, MRP2, and MRP3 functions were also discussed. Solutions with three concentrations (low, middle, and high) of emodin were filled in the mucosal or serosal compartment to measure the bidirectional transport characteristic. […] In the emodin impact experiments, digoxin, pravastatin, and teniposide were employed as P-gp, MRP2, and MRP3 substrates. Changes of the bidirectional transport characteristic were measured before and after adding emodin to the mucosal side.
(§7) Frozen samples were adequately vortexed after thawing at the room temperature; 10 μL suitable IS solution was added to 200 μL samples; 200 μL methanol was added after a thorough vortex mixing for 30 s. The mixtures were then vortexed for 30 s and centrifuged at 15,000 rpm for 30 min. Finally, 5 μL of supernatant was injected into the LC-MS/MS system.
(§8) The quantifications of the compounds were performed by the TSQ Quantum Ultra Triple Quadrupole LC-MS/MS system from Thermo Fisher Scientific. Chromatography was carried out using an Agilent Poroshell 120 SB-C18 (2.7 μm, 2.1 mm × 100 mm) column with a Phenomenex AFO-8497 C18 pre-column, operating at 30°C. Adaptive gradient elution methods were applied for the analytes. The flow rate of the mobile phase was kept at 0.2 mL min^-1. Flow was directed to the ion spray interface. All measurements were carried out in negative ESI mode. Ion spray voltage was -2500 V. Vaporizer and capillary temperatures were set at 250 and 350°C, respectively. Auto sampler temperature was set at 10°C. Sheath gas and aux gas were set at 30 and 15 Arb, respectively. […] Peak integrations and calibrations were carried out using LC Quan 2.5.2 software from Thermo Fisher Scientific.
as §4
(§9) where Cn (nM) is the concentration of the drug at the time point (n), Q (nM) is the accumulated absorption amount, A is the exposed surface area of the intestine (0.49 cm^2), dQ/dt (nM⋅s^-1) is the amount of the drug transported, and C0 (nM) is the initial concentration of the test drug. Experiments were performed in batches, so control groups were set as one for each batch.

Data set [5] relates to P-gp. Briefly: Emodin transport in jejunum in the presence of P-gp inhibitor verapamil (Ussing chamber). As to conditions: rat jejunum, emodin 9.25 μM, verapamil 220 μM on mucosal side.
Text: as §1, §2, §3, §4

Data set [6] addresses T1, MRP3. Briefly: Influence of emodin on MRP3 function: teniposide bidirectional transport in the presence of emodin (Ussing chamber). The format is in vitro ADME. As to conditions: rat jejunum; for Papp at 60 μM: rat.
Text: as §5, §6, §7, §8, §4, §9

In data set [7] the target is T1, MRP3. Put plainly: Ussing chamber bidirectional transport, model validation for MRP3 (teniposide substrate, benzbromarone inhibitor). The format is in vitro ADME. As to conditions: rat.
Text: as §5
Digoxin, pravastatin, and teniposide were employed as the test substrates of P-gp, MRP2, and MRP3. […] The experiments were started after 30 min equilibration time, by changing the KRB buffer on both sides; 5 mL KRB solution with different test compounds was filled in the mucosal or serosal compartment; meanwhile, equal volume fresh buffer was added to the other compartment. […] The bidirectional transport studies with specific inhibitors were assessed to validate this model whether or not suitable for P-gp, MRP2, and MRP3 studies. Samples were stored at –80°C until analysis ([Deusser et al., 2013]).
as §7, §8, §4, §9

On the set-up of data set [8]: method as in Di et al. (2015). As to conditions: ref Di et al. (2015); cited from earlier work.

Read-outs that look alike come from different tables or passages of the source.

T1 sequence (O88563 whole entry): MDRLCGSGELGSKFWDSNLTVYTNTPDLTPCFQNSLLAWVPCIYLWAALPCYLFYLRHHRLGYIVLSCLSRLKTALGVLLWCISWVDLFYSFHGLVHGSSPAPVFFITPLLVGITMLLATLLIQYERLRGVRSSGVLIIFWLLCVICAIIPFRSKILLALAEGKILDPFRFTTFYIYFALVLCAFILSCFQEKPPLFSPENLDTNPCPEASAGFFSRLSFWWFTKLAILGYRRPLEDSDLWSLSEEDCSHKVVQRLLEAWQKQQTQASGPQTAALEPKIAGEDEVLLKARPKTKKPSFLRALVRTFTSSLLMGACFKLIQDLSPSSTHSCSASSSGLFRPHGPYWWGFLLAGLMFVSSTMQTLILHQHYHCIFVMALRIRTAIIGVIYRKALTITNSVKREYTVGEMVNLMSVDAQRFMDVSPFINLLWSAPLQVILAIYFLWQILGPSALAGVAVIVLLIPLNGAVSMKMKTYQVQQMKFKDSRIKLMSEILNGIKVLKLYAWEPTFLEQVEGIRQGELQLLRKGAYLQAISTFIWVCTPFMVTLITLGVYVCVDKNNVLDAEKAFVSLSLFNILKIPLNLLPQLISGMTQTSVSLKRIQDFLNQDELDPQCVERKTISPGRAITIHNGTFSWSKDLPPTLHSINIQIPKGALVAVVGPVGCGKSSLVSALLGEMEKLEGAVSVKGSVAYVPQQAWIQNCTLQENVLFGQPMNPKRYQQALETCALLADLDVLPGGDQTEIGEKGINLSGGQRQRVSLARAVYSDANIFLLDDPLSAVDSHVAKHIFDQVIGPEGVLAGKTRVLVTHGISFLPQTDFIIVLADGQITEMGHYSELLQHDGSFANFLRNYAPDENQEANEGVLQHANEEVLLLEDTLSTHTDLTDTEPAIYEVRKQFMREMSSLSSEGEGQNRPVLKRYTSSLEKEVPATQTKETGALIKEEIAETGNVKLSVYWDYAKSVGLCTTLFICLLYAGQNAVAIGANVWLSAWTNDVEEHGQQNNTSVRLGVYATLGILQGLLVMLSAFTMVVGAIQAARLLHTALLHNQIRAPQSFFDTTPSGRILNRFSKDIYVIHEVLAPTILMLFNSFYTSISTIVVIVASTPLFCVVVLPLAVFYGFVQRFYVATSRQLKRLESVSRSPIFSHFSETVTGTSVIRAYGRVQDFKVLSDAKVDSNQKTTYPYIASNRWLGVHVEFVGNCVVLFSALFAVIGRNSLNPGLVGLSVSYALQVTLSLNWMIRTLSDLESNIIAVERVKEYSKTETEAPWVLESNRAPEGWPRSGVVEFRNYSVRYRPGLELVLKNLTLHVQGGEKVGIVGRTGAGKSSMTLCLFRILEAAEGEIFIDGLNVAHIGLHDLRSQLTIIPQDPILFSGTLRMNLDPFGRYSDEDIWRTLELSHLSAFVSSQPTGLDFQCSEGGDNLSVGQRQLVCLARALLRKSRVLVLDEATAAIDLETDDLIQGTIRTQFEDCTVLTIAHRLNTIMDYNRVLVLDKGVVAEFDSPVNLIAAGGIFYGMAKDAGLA

In the case of `OC[C@H]1O[C@@H](Oc2c(O)cc(O)cc2C=Cc2ccc(O)cc2)[C@H](O)[C@@H](O)[C@@H]1O` [2,3,5,4’-tetrahydroxystilbene-2-β-D-glucoside], the “Effect on emodin absorption” value with Caco-2 cell is “could enhance”.

Consider `Cc1cc(O)c2c(c1)C(=O)c1cc(O)cc(O)c1C2=O` [Emodin, 1,3,8trihydroxy-6-methylanthraquinone], for which the “Substrate of MRP2” value in data set [1] is “substrate”. In addition, on MRP2, the “Change of emodin Papp from mucosal to serosal side with MK571” value is reported as “significantly increased” and the “Change of emodin efflux ratio with MK571” value is reported as “decreased”. In the data set on P-glycoprotein (P-gp), the “Substrate of P-gp” value is “substrate”. Also, the “Regioselectivity of intestinal absorption rates” value in [2] (duodenum, jejunum, ileum, colon, 9.25, 18.5 and 37 μM) is listed as “no regioselectivity”. In addition, in data set [2] (rat intestinal segments, lowest concentration (9.25 μM)), the “Papp values from M-S” value is “very low”. Besides, the “Er (efflux ratio) of emodin” value in data set [2] (rat jejunum, at all three concentrations 9.25, 18.5 and 37 μM) is on record as “more than five”. For the same molecule, the “Substrate of MRP3” value on MRP3 [3] (Ussing chamber) was “might not be a substrate”. Also, the “Change of emodin transport with benzbromarone” value at MRP3 [3] (benzbromarone 470 μM on mucosal side) is listed as “no significant differences”. Besides, in the data set with P-gp [4], the “Effect of emodin on P-gp function” value is on record as “could enhance P-gp function”. Moreover, in the data set with P-gp [5], the “Change of emodin absorption (M-S) with verapamil” value is listed as “markedly increase” and the “Change of emodin efflux ratio with verapamil” value was “decrease”. Further, the “Effect of emodin on MRP3 function” value at MRP3 [6] (emodin 185, 370, 740 μM, teniposide as substrate) is reported as “might be an MRP3 inhibitor”.

In general, Papp refers to a coefficient for how fast a substance crosses the barrier. Take `COc1cc([C@@H]2c3cc4c(cc3[C@@H](O[C@@H]3O[C@@H]5CO[C@@H](c6cccs6)O[C@H]5[C@H](O)[C@H]3O)[C@H]3COC(=O)[C@H]23)OCO4)cc(OC)c1O` [Teniposide]: the apparent permeability (Papp) was 16 ± 11.1 ×10⁻⁶ cm/s at MRP3 [7] (pH 6.5, rat colon, without inhibitor, read-out: Papp M-S, control); 21.3 ± 11.9 ×10⁻⁶ cm/s at MRP3 [7] (pH 6.5, rat colon, without inhibitor, read-out: Papp S-M, control); 12.6 ± 7.7 ×10⁻⁶ cm/s at MRP3 [7] (pH 6.5, rat ileum, without inhibitor, read-out: Papp M-S, control); 24.5 ± 10 ×10⁻⁶ cm/s at MRP3 [7] (pH 6.5, rat ileum, without inhibitor, read-out: Papp S-M, control); 14 ± 4.4 ×10⁻⁶ cm/s on MRP3 [7] (pH 6.5, rat jejunum, without inhibitor, read-out: Papp M-S, control); 33.5 ± 14 ×10⁻⁶ cm/s on MRP3 [7] (pH 6.5, rat jejunum, without inhibitor, read-out: Papp S-M, control). Further, the Papp at MRP3 [7] (pH 6.5, with benzbromarone 470 μM, mucosal side, rat colon, with benzbromarone 470 μM on mucosal side, read-out: Papp M-S, with inhibitor) was determined as 28.3 ± 8.4 ×10⁻⁶ cm/s; on MRP3 [7] (pH 6.5, with benzbromarone 470 μM, mucosal side, rat colon, with benzbromarone 470 μM on mucosal side, read-out: Papp S-M, with inhibitor) it was 8.3 ± 1.9 ×10⁻⁶ cm/s; on MRP3 [7] (pH 6.5, with benzbromarone 470 μM, mucosal side, rat ileum, with benzbromarone 470 μM on mucosal side, read-out: Papp M-S, with inhibitor), 28 ± 19.5 ×10⁻⁶ cm/s; at MRP3 [7] (pH 6.5, with benzbromarone 470 μM, mucosal side, rat ileum, with benzbromarone 470 μM on mucosal side, read-out: Papp S-M, with inhibitor), 10.3 ± 2.9 ×10⁻⁶ cm/s; on MRP3 [7] (pH 6.5, with benzbromarone 470 μM, mucosal side, rat jejunum, with benzbromarone 470 μM on mucosal side, read-out: Papp M-S, with inhibitor), 37.2 ± 9.7 ×10⁻⁶ cm/s; at MRP3 [7] (pH 6.5, with benzbromarone 470 μM, mucosal side, rat jejunum, with benzbromarone 470 μM on mucosal side, read-out: Papp S-M, with inhibitor), 13.1 ± 6.4 ×10⁻⁶ cm/s. Moreover, at MRP3 [6] (teniposide 60 μM, emodin 185, 370, 740 μM), the “Change of Papp from S-M and Er of teniposide in the presence of emodin” value is listed as “remarkably decreased”. For the same molecule, the apparent permeability (Papp) at 60 μM amounted to 69.4 ± 17.5 ×10⁻⁶ cm/s at MRP3 [6] (pH 6.5, teniposide 60 μM, without emodin, read-out: Papp M-S, control); 81.8 ± 15.9 ×10⁻⁶ cm/s at MRP3 [6] (pH 6.5, teniposide 60 μM, without emodin, read-out: Papp S-M, control); 63.2 ± 5.9 ×10⁻⁶ cm/s at MRP3 [6] (pH 6.5, with emodin 185 μM on mucosal side, teniposide 60 μM, emodin 185 μM on mucosal side, read-out: Papp M-S in the presence of emodin); 56.1 ± 5.7 ×10⁻⁶ cm/s on MRP3 [6] (pH 6.5, with emodin 185 μM on mucosal side, teniposide 60 μM, emodin 185 μM on mucosal side, read-out: Papp S-M in the presence of emodin); 52.5 ± 7.3 ×10⁻⁶ cm/s on MRP3 [6] (pH 6.5, with emodin 370 μM on mucosal side, teniposide 60 μM, emodin 370 μM on mucosal side, read-out: Papp M-S in the presence of emodin); 31.2 ± 13.2 ×10⁻⁶ cm/s on MRP3 [6] (pH 6.5, with emodin 370 μM on mucosal side, teniposide 60 μM, emodin 370 μM on mucosal side, read-out: Papp S-M in the presence of emodin). The apparent permeability coefficient (Papp) at 60 μM on MRP3 [6] (pH 6.5, with emodin 740 μM on mucosal side, teniposide 60 μM, emodin 740 μM on mucosal side, read-out: Papp M-S in the presence of emodin) came to 91.1 ± 27.3 ×10⁻⁶ cm/s; on MRP3 [6] (pH 6.5, with emodin 740 μM on mucosal side, teniposide 60 μM, emodin 740 μM on mucosal side, read-out: Papp S-M in the presence of emodin) it was 41.1 ± 6.2 ×10⁻⁶ cm/s.

Take `O=C(/C=C/C=C/c1ccc2c(c1)OCO2)N1CCCCC1` [piperine]: in [8], the “Effect on glucuronidation metabolism of emodin” value is “inhibited” and the “Effect on in vivo bioavailability of emodin” value is “significantly improved”.
